From PMC10251509, “Ultrafast Fragment Screening Using Photo-Hyperpolarized (CIDNP) NMR” (Journal of the American Chemical Society, 2023)
Read-outs that look alike come from different tables or passages of the source.

Legend:
Assay type in all cases: binding
[1] = molecular target: T1, PIN1 (Homo sapiens, UniProt Q13526); test: photo-CIDNP 1D 1H NMR fragment screening (polarization ratio) against PIN1
T1 construct: polyhistidine (N); made in house; host or cells: Escherichia coli BL21 (DE3)
Description: The combination of these two effects yields the quenching of the photo-CIDNP hyperpolarized signal in the case of binding to a protein, as L decreases and R1,eff increases.
It is also overexpressed in many human cancer cells.[16] It is thus regarded as a potential drug target, and several studies attempted to discover hits and unravel the structure–activity relationship.[3],[4],[36] […] The NMR experiments were performed using single-scan NMR experiments, comprising light irradiation, an excitation pulse, and a water suppression scheme, as described previously.[13] Although each experiment was recorded in only 2 s, the limiting step was the sample tube exchange. Indeed, the optic fiber needed to be plugged into the tubes while changing the samples, which required ca. 15 s per tube using a house-made connector tightening the tube and the optic fiber with O-rings (Figure S2). Removing the sample from and bringing the new sample into the spectrometer requires an additional 30 s, and a shimming step must be performed for each new tube (30 s).
(§1) As proposed in the theoretical part, the photo-CIDNP traces were recorded in the presence and absence of PIN1. The peak intensity and chemical shifts were analyzed pairwise to identify the hits. […] The reference apo-PIN1 sample was spiked with 1.9 μL of DMSO to compensate for the DMSO that is introduced upon fragment addition, as the fragments are stored in stock solutions of 5 mM 90% DMSO-d6 and 10% D2O.
The laser used was a Thorlabs L450P1600MM, a diode laser emitting at 450 nm. The laser light was coupled (using appropriate coupling optics) into an optical fiber (Thorlabs, FG950UEC) of length 10 m and a diameter of 0.95 mm. The end of the fiber was inserted into the sample solution inside the 3 mm NMR glass tube to a depth of about 5 mm above the NMR coil region. The library QC and the control binding experiments for PIN1 were measured on a Bruker Avance III HD 600 MHz spectrometer equipped with a cryoprobe and SampleJet.

[2] = molecular target: T1, PIN1; test: [15N,1H]-HSQC hit validation (chemical shift perturbations) on 15N-labeled PIN1; conditions: 50 μM 15N-labeled PIN1, 200 μM fragment
Description: as §1
For the control binding experiments using ligand-induced chemical shift perturbation analysis, standard [^15N, ^1H]-HSQC spectra were measured. […] Processing was done with a shifted cosine window function for both dimensions. […] The spinlock times were set at 10 and 400 ms.

[3] = molecular target: T1, PIN1; test: [15N,1H]-HSQC titration series with increasing ligand concentration, PIN1; conditions: values with * could not be fitted to a maximum, Kd most likely higher
Description: (B) Chemical shift perturbation titration studies of the compounds with ^15N-labeled PIN1 measured by [^15N,^1H]-HSQC experiments and shown for residues T154 and A124 in the presence of increasing ligand concentrations. […]
For the control binding experiments using ligand-induced chemical shift perturbation analysis, standard [^15N, ^1H]-HSQC spectra were measured. The detailed conditions for the 2D experiments acquired at 600 MHz ^1H NMR frequency were the 100 μM ^15N-labeled PDZ2 domain in the absence and presence of equimolar peptide in PDZ2 buffer and at a temperature of 298 K and 50 μM ^15N-labeled PIN1 in the absence and presence of 200 μM ligands in PIN1 buffer and at a temperature of 298 K, respectively. […] The data was zero–filled to 2048 points in the direct proton dimension and to 256 points in the ^15N–dimension. Processing was done with a shifted cosine window function for both dimensions. […] The spinlock times were set at 10 and 400 ms. The STD experiments were measured at 298 K with 16,384 (tmax (^1H) = 974 ms) complex points and 512 scans per increment.
Figure S7: Chemical shift perturbation-based Kd determination of individual compounds binding to PIN1. The chemical shift displacement of the 15N-1H moieties of A124 (black) and T154 (red) PIN1 (y-axis) in dependence on the compound […]
The fits to the titrations are highlighted by a line and the Kd extracted is given in mM. Compound 13 titration series ranges 0, 80, 100, 200, 300, 600, 1000, […]
concentration; compounds 3, 10, and 11 range 0, 200, 500, 1000, 2000, 3000 µM concentration and all the samples contained 80 µM of PIN1 protein and were measured in PIN1 buffer at 298K. […]

T1 sequence (Q13526 whole entry, the tested form may be a part): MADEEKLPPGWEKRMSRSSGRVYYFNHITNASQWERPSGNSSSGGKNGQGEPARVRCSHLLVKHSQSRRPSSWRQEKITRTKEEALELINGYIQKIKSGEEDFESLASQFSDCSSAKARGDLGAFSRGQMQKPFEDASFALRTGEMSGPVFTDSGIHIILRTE

polarization ratio ([1]; 50 μM ligand, ±25 μM PIN1, 20 μM fluorescein, 0 = total binding, 1 = no interaction, hit <0.8): 0.38 | polarization ratio ([1]; low concentration: 20 μM ligand (compound 1: 5 μM), ±2 μM PIN1, single scan): 0.73 | fragment-induced CSPs in [15N,1H]-HSQC [2]: strong CSPs | median CSP ([2]; median only of signals showing CSP): 0.119 | Kd ([3]; fit of CSP build-up of residue A124, read-out: Kd A124): 4.5 mM | Kd ([3]; fit of CSP build-up of residue T154, read-out: Kd T154): 1.7 mM
SMILES: Cc1cccc(-c2nc(C)c(C(=O)O)[nH]2)c1 [Compound 13, reference compound]
